This experiment relates to L1210 leukemia ip in BDF1 mice, survival T/C. The experiment can be described thus: NCI In Vivo Anticancer Drug Screen. Data for tumor model L1210 Leukemia (intraperitoneal) in B6D2F1 (BDF1) mice. The following applies: endpoint: mean survival time, higher = longer survival. In a few lines: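 Transplanted-tumor mice were given test agent; controls received vehicle only. Survival readings from the two groups were divided (treated over control).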

[1] abbreviates: dose: 100.0 mg/kg/injection, schedule: Q01DX001 (ip), vehicle: saline.
The mark [2] stands for this setting: dose: 200.0 mg/kg/injection, schedule: Q01DX001 (ip), vehicle: saline.
[3] abbreviates: dose: 400.0 mg/kg/injection, schedule: Q01DX001 (ip), vehicle: saline.
Where [4] appears, read: dose: 50.0 mg/kg/injection, schedule: Q01DX001 (ip), vehicle: saline.
Where [5] appears, read: dose: 100.0 mg/kg/injection, schedule: Q04DX003 (ip), vehicle: saline.
Setting [6] is: dose: 200.0 mg/kg/injection, schedule: Q04DX003 (ip), vehicle: saline.

Structures are written as SMILES. Where “and” joins values, the source holds several entries; their conditions need not be identical. Equal values may be shown once. Toxic doses and inconclusive results are not listed.

With `Nc1ccc(S(=O)(=O)Nc2ncccn2)cc1`, the T/C under setting [1] is 96 % of control; the T/C (dose: 100.0 mg/kg/injection, schedule: Q04DX002 (ip), vehicle: Klucel (hydroxypropylcellulose) (HPC)) is 103 % of control; the T/C under setting [2] was 97 % of control; the T/C (dose: 200.0 mg/kg/injection, schedule: Q04DX002 (ip), vehicle: Klucel (hydroxypropylcellulose) (HPC)) was 92 % of control; the T/C under setting [3] is 103 % of control; the T/C (dose: 400.0 mg/kg/injection, schedule: Q04DX002 (ip), vehicle: Klucel (hydroxypropylcellulose) (HPC)) is 103 % of control.
For `O=C(OC1CC=CCC1)c1ccc([N+](=O)[O-])cc1` (centres undefined), the T/C is 86 % of control (dose: 100.0 mg/kg/injection, schedule: Q01DX001 (ip), vehicle: Klucel (hydroxypropylcellulose) (HPC)); 98 % of control (dose: 200.0 mg/kg/injection, schedule: Q01DX001 (ip), vehicle: Klucel (hydroxypropylcellulose) (HPC)); 96 % of control (dose: 400.0 mg/kg/injection, schedule: Q01DX001 (ip), vehicle: Klucel (hydroxypropylcellulose) (HPC)).
For `O=C1C(O)CCN1Cc1ccccc1` (centres undefined), the T/C under setting [4] is 108 % of control, the T/C under setting [1] was 104 % of control, the T/C under setting [2] was 104 % of control and the T/C under setting [3] was 102 % of control.
For `NNc1ncnc2c(C3OC(CO)C(O)C3O)[nH]nc12` (centres undefined), the T/C runs as follows: (dose: 12.5 mg/kg/injection, schedule: Q01DX009 (ip), vehicle: Klucel (hydroxypropylcellulose) (HPC)) 111 % of control; (dose: 20.0 mg/kg/injection, schedule: Q01DX009 (ip), vehicle: water) 107 % of control; (dose: 25.0 mg/kg/injection, schedule: Q01DX005 (ip), vehicle: Klucel (hydroxypropylcellulose) (HPC)) 118 % of control; (dose: 30.0 mg/kg/injection, schedule: Q01DX009 (ip), vehicle: water) 107 % of control; (dose: 45.0 mg/kg/injection, schedule: Q01DX009 (ip), vehicle: water) 112 % of control; (dose: 50.0 mg/kg/injection, schedule: Q01DX005 (ip), vehicle: Klucel (hydroxypropylcellulose) (HPC)) 124 % of control. For the same compound, the T/C is 118 % of control (dose: 50.0 mg/kg/injection, schedule: Q01DX005 (ip), vehicle: saline); 113 % of control (dose: 50.0 mg/kg/injection, schedule: Q01DX009 (ip), vehicle: Klucel (hydroxypropylcellulose) (HPC)); 122 % of control (dose: 67.0 mg/kg/injection, schedule: Q01DX009 (ip), vehicle: water); 122 % of control (dose: 100.0 mg/kg/injection, schedule: Q01DX009 (ip), vehicle: Klucel (hydroxypropylcellulose) (HPC)); 118 % of control under setting [5]; 102 % of control (dose: 100.0 mg/kg/injection, schedule: Q08DX002 (ip), vehicle: saline). Moreover, the T/C is, setting by setting: (dose: 150.0 mg/kg/injection, schedule: Q01DX009 (ip), vehicle: saline) 120 % of control; (dose: 200.0 mg/kg/injection, schedule: Q01DX005 (ip), vehicle: Klucel (hydroxypropylcellulose) (HPC)) 106 % of control; (dose: 200.0 mg/kg/injection, schedule: Q01DX005 (ip), vehicle: saline) 106 % of control; under setting [6], 122 % of control; (dose: 200.0 mg/kg/injection, schedule: Q08DX002 (ip), vehicle: saline) 122 % of control; (dose: 800.0 mg/kg/injection, schedule: Q08DX002 (ip), vehicle: saline) 104 % of control.
As to `COC(=O)/C=C(\C)Nc1cc(OC)ccc1OC`, the T/C was 94 % of control under setting [1], 87 % of control under setting [2] and 92 % of control under setting [3].
As for `CC[N+](CC)(CC)Cc1ccccc1` (tested in a mixture with another compound), the T/C runs as follows: (dose: 6.25 mg/kg/injection, schedule: Q01DX009 (ip), vehicle: saline) 97 % of control; (dose: 12.5 mg/kg/injection, schedule: Q01DX009 (ip), vehicle: saline) 103 % of control; (dose: 25.0 mg/kg/injection, schedule: Q01DX001 (ip), vehicle: saline) 96 % of control; (dose: 25.0 mg/kg/injection, schedule: Q01DX009 (ip), vehicle: saline) 95 % of control and 108 % of control; (dose: 25.0 mg/kg/injection, schedule: Q04DX003 (ip), vehicle: saline) 111 % of control and 96 % of control; under setting [4], 112 % of control. The T/C (dose: 50.0 mg/kg/injection, schedule: Q04DX003 (ip), vehicle: saline) was 102 % of control and 104 % of control; the T/C under setting [1] is 98 % of control and 106 % of control; the T/C (dose: 100.0 mg/kg/injection, schedule: Q01DX009 (ip), vehicle: saline with Tween-80) is 92 % of control; the T/C under setting [5] was 88 % of control; the T/C (dose: 200.0 mg/kg/injection, schedule: Q01DX009 (ip), vehicle: saline with Tween-80) was 96 % of control; the T/C (dose: 400.0 mg/kg/injection, schedule: Q01DX009 (ip), vehicle: saline with Tween-80) was 92 % of control.
As for `NC(N1CC1)(C(F)(F)F)C(F)(F)F`, the T/C reads like this: (dose: 20.0 mg/kg/injection, schedule: Q01DX001 (ip), vehicle: saline) 100 % of control; (dose: 20.0 mg/kg/injection, schedule: Q04DX003 (ip), vehicle: saline) 102 % of control; (dose: 40.0 mg/kg/injection, schedule: Q01DX001 (ip), vehicle: saline) 111 % of control; (dose: 40.0 mg/kg/injection, schedule: Q04DX003 (ip), vehicle: saline) 102 % of control; (dose: 80.0 mg/kg/injection, schedule: Q01DX001 (ip), vehicle: saline) 102 % of control; (dose: 80.0 mg/kg/injection, schedule: Q04DX003 (ip), vehicle: saline) 94 % of control.
`Cc1cc(CN)c(C)cc1CN`: the T/C reads like this: (dose: 50.0 mg/kg/injection, schedule: Q01DX009 (ip), vehicle: saline) 96 % of control; (dose: 100.0 mg/kg/injection, schedule: Q01DX009 (ip), vehicle: saline) 95 % of control; under setting [5], 103 % of control; (dose: 200.0 mg/kg/injection, schedule: Q01DX009 (ip), vehicle: saline) 86 % of control; under setting [6], 97 % of control.
In the case of `O=C(Nc1ccc(S(=O)(=O)NC2CCCCC2)cc1)OC1CCCCC1`, the T/C runs as follows: under setting [1], 92 % of control; under setting [2], 90 % of control; under setting [3], 94 % of control.
In the case of `NNc1ncnc2c1ncn2C1OC(CO)C(O)C1O` (centres undefined), the T/C (dose: 1.0 mg/kg/injection, schedule: Q01DX015 (ip), vehicle: carboxymethylcellulose (CMC)) is 106 % of control; the T/C (dose: 3.0 mg/kg/injection, schedule: Q01DX015 (ip), vehicle: carboxymethylcellulose (CMC)) was 109 % of control; the T/C (dose: 6.0 mg/kg/injection, schedule: Q01DX015 (ip), vehicle: carboxymethylcellulose (CMC)) is 106 % of control; the T/C (dose: 12.0 mg/kg/injection, schedule: Q01DX015 (ip), vehicle: carboxymethylcellulose (CMC)) is 97 % of control; the T/C (dose: 20.0 mg/kg/injection, schedule: Q01DX015 (ip), vehicle: carboxymethylcellulose (CMC)) was 106 % of control; the T/C (dose: 25.0 mg/kg/injection, schedule: Q01DX015 (ip), vehicle: carboxymethylcellulose (CMC)) was 118 % of control. The T/C was 108 % of control (dose: 30.0 mg/kg/injection, schedule: Q01DX015 (ip), vehicle: carboxymethylcellulose (CMC)); 122 % of control (dose: 44.0 mg/kg/injection, schedule: Q01DX015 (ip), vehicle: carboxymethylcellulose (CMC)); 108 % of control (dose: 50.0 mg/kg/injection, schedule: Q01DX001 (ip), vehicle: carboxymethylcellulose (CMC)); 122 % of control (dose: 50.0 mg/kg/injection, schedule: Q01DX Z (ip), vehicle: other); 121 % of control (dose: 75.0 mg/kg/injection, schedule: Q01DX Z (ip), vehicle: other); 116 % of control (dose: 100.0 mg/kg/injection, schedule: Q01DX001 (ip), vehicle: carboxymethylcellulose (CMC)). Besides, the T/C by setting is: (dose: 100.0 mg/kg/injection, schedule: Q01DX015 (ip), vehicle: carboxymethylcellulose (CMC)) 124 % of control; (dose: 100.0 mg/kg/injection, schedule: Q01DX Z (ip), vehicle: other) 152 % of control; (dose: 150.0 mg/kg/injection, schedule: Q01DX015 (ip), vehicle: carboxymethylcellulose (CMC)) 86 % of control; (dose: 150.0 mg/kg/injection, schedule: Q01DX Z (ip), vehicle: other) 95 % of control; (dose: 186.75 mg/kg/injection, schedule: Q01DX015 (ip), vehicle: gum acacia) 83 % of control; (dose: 200.0 mg/kg/injection, schedule: Q01DX001 (ip), vehicle: carboxymethylcellulose (CMC)) 111 % of control. The T/C (dose: 220.0 mg/kg/injection, schedule: Q01DX015 (ip), vehicle: carboxymethylcellulose (CMC)) is 95 % of control.

The record behind these values is PubChem BioAssay AID248 (DTP/NCI, 2004).
